Reference: ChEMBL document CHEMBL2311471, “Synthesis of (E)-8-(3-chlorostyryl)caffeine analogues leading to 9-deazaxanthine derivatives as dual A(2A) antagonists/MAO-B inhibitors” (J Med Chem, 2013)

How the values were obtained:
[1] = biological target: T1, Amine oxidase [flavin-containing] B (Homo sapiens, UniProt P27338); assay: Inhibition of human MAOB after 1 hr by luminescence assay
T1 sequence (P27338 whole entry): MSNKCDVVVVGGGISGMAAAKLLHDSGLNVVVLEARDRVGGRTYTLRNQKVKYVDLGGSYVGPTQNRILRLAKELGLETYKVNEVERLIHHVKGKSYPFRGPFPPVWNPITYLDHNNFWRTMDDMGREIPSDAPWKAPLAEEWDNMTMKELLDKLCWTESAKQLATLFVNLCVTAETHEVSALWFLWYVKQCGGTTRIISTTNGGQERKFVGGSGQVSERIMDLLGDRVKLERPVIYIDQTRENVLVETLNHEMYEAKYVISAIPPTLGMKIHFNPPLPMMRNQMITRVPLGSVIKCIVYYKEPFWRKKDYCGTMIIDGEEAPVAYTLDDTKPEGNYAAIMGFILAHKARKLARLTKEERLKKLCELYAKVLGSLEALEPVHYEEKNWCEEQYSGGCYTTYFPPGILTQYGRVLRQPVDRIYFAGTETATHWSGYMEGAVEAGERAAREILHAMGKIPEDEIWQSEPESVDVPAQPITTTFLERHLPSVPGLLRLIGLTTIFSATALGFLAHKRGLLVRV

[2] = biological target: Adenosine receptor A2a (Homo sapiens, UniProt P29274); assay: Displacement of [3H]ZM241385 from human adenosine A2A receptor expressed in HEK293 cells after 1 hr by microbeta scintillation counting analysis; format: cell-based
[3] = biological target: T2, Amine oxidase [flavin-containing] A (Homo sapiens, UniProt P21397); assay: Inhibition of human MAOA after 1 hr by luminescence assay
T2 sequence (P21397 whole entry): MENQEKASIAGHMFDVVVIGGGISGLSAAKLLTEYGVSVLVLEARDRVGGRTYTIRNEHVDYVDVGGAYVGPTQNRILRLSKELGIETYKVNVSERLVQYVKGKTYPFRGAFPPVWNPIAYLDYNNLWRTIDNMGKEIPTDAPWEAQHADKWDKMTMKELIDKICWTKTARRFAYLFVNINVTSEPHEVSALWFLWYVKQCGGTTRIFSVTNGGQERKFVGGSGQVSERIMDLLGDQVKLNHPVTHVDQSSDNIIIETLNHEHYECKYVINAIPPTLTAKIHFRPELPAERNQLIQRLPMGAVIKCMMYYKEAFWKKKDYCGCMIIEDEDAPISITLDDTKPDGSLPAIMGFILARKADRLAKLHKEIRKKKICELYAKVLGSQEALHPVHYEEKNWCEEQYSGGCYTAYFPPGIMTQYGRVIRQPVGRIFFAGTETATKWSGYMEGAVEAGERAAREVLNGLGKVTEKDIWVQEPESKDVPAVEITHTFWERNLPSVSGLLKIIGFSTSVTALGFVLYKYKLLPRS

Chain of Adenosine receptor A2a (P29274 whole entry): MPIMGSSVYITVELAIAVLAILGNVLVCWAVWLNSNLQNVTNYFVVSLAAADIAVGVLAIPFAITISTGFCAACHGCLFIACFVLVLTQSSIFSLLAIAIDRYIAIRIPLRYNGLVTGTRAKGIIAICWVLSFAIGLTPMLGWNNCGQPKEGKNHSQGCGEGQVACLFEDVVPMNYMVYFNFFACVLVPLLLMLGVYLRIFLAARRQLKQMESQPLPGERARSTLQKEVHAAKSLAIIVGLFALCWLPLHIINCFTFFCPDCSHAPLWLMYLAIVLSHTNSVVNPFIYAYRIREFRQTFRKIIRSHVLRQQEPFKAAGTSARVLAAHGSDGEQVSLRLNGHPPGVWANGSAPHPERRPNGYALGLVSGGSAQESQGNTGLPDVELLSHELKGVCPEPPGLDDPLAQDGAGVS

Compound | IC50 [1] [µM] | Ki [2] [µM] | IC50 [3] [µM]
Cn1c(=O)c2c(cc(/C=C/c3cccc(C#N)c3)n2C)n(C)c1=O | > 10 | > 10 | 
Cn1c(=O)c2c(cc(/C=C/c3ccc(O)cc3)n2C)n(C)c1=O | > 10 | > 10 | 
Cn1c(=O)c2c(nc(/C=C/c3ccc(Cl)cc3)n2C)n(C)c1=O | 0.43 | 0.141 | > 10
Cn1c(=O)c2c(c3ccc(-c4cccc(Cl)c4)cc3n2C)n(C)c1=O | 1.39 | > 1 | 3.11
Cn1c(=O)c2c(cc(/C=C/c3cccc(N)n3)n2C)n(C)c1=O | > 10 | 0.887 | 
CCn1c(=O)c2c(cc(C#Cc3ccc(Cl)cc3)n2C)n(CC)c1=O | > 1 | > 10 | 
Cn1c(=O)c2c(cc(/C=C/c3ccc(Br)cc3)n2C)n(C)c1=O | 0.267 | > 10 | 1.63
Cn1c(=O)c2c(cc(Oc3cccc(Cl)c3)n2C)n(C)c1=O | > 10 | > 10 | 
Cn1c(=O)c2c(cc(OCc3ccc4ccccc4c3)n2C)n(C)c1=O | > 1 | > 10 | > 10
Cn1c(=O)c2c(cc(OCc3ccc(Cl)c(C(F)(F)F)c3)n2C)n(C)c1=O | 0.583 | > 10 | > 10
CC(=O)c1ccc(/C=C/c2cc3c(c(=O)n(C)c(=O)n3C)n2C)cc1 | 0.587 | 0.0939 | > 10
Cn1c(=O)c2c(cc(/C=C/c3ccc4c(c3)OCO4)n2C)n(C)c1=O | > 1 | 0.467 | 
Cn1c(=O)c2c(cc(-c3nc4ccc(Cl)cc4o3)n2C)n(C)c1=O | > 1 | > 1 | 
Cn1c(=O)c2c(cc(NC(=O)c3ccc(Cl)cc3)n2C)n(C)c1=O | > 10 | > 10 | 
Cn1c(=O)c2c(cc(/C=C/c3cccc(Cl)c3)n2C)n(C)c1=O | 1.48 | 0.43 | 
CCn1c(=O)c2c(nc(/C=C/c3ccc(OC)c(OC)c3)n2C)n(CC)c1=O [ISTRADEFYLLINE] | > 10 |  | 
CN(C(=O)/C=C/c1ccccc1)c1cn(C)c(=O)n(C)c1=O | > 10 | > 1 | 
Cn1c(=O)c2c(cc(Oc3cccc(-c4ccccc4)c3)n2C)n(C)c1=O | > 10 | > 10 | 
CCCOc1ccc(/C=C/c2cc3c(c(=O)n(C)c(=O)n3C)n2C)cc1 | 1.37 | 0.307 | 1.3
Cn1c(=O)c2c(cc(/C=C/c3ccccc3O)n2C)n(C)c1=O | > 1 | 1.14 | 
COc1cccc(/C=C/c2cc3c(c(=O)n(C)c(=O)n3C)n2C)c1 | 0.37 | 0.391 | 1.24
CCn1c(=O)c2c(cc(/C=C/c3ccc(Cl)cc3)n2C)n(CC)c1=O | > 1 | > 10 | 

Compound | IC50 [1] [µM] | Ki [2] [µM] | IC50 [3] [µM]
Cn1ccc2nc(/C=C/c3ccccc3)n(C)c2c1=O | > 10 | > 10 | 
Cn1c(=O)c2c(cc(/C=C/c3ccc(C#N)cc3)n2C)n(C)c1=O | 0.543 | > 1 | > 10
Cn1c(=O)c2c(cc(/C=C/c3ccc(S(C)(=O)=O)cc3)n2C)n(C)c1=O | > 1 | > 1 | 
Cn1c(=O)c2c(cc(/C=C/c3ccc(F)cc3)n2C)n(C)c1=O | 0.175 | 0.423 | 0.812
CC(=O)c1cccc(/C=C/c2cc3c(c(=O)n(C)c(=O)n3C)n2C)c1 | > 10 | > 10 | 
Cn1c(=O)c2c(cc(/C=C/c3ccc(C(F)(F)F)cc3)n2C)n(C)c1=O | 0.432 | 0.531 | > 10
Cn1c(=O)c2c(cc(/C=C/c3ccc(Cl)c(Cl)c3)n2C)n(C)c1=O | 0.133 | > 10 | 
Cn1c(=O)c2c(cc(-n3cc(-c4ccc(Cl)cc4)nn3)n2C)n(C)c1=O | 0.182 | > 10 | 0.726
Cn1c(=O)c2c(cc(C#Cc3cccc(Cl)c3)n2C)n(C)c1=O | 0.173 | > 10 | > 10
CCn1c(/C=C/c2ccc(Cl)cc2)cc2c1c(=O)n(C)c(=O)n2C | > 1 | > 10 | 
Cn1c(=O)c2c(cc(/C=C/c3cccc(C(F)(F)F)c3)n2C)n(C)c1=O | 0.48 | > 10 | 5.69
Cn1c(=O)c2c(c3ccc(-c4ccccc4)cc3n2C)n(C)c1=O | 7.63 | > 10 | 
Cn1c(=O)c2c(cc(OCc3ccc(Cl)cc3)n2C)n(C)c1=O | 0.0481 | > 10 | 2.87
COc1ccc(/C=C/c2cc3c(c(=O)n(C)c(=O)n3C)n2C)cc1 | 0.762 | 0.247 | > 1
Cn1c(=O)c2c(cc(/C=C/c3cccc(O)c3)n2C)n(C)c1=O | > 1 | > 1 | 
Cn1c(=O)c2c(cc(C#Cc3ccc(Cl)cc3)n2C)n(C)c1=O | 0.0678 | > 10 | 2.02
Cn1c(/C=C/c2ccccc2)nc2c1ccc(=O)n2C | > 10 | > 10 | 
Cn1c(=O)c2c(c3cc(OCc4ccccc4)ccc3n2C)n(C)c1=O | 5.22 | > 1 | > 10
Cn1c(=O)c2c(cc(/C=C/c3ccccc3)n2C)n(C)c1=O | 1.58 | 0.17 | 
Cn1c(=O)c2c(cc(C#CCc3ccccc3)n2C)n(C)c1=O | > 1 | > 10 | 
CCn1c(=O)c2c(cc(OCc3ccc(Cl)cc3)n2C)n(CC)c1=O | > 1 | > 10 | 
Cn1c(=O)c2c(cc(/C=C/c3ccncc3)n2C)n(C)c1=O | > 10 | > 10 | 
